Data reported in a melting point compilation (Tetko et al.; mined from patent text by program, amines drawn as free bases though some values may be those of a salt).

Point of comparison: `CN(Cc1ccc(Cl)nc1)C(N)=N[N+](=O)[O-]`, melting point 158 °C. Against it:
- CCCCc1ccc2c(c1)C(=O)N(c1ccc3c(ccn3C)c1)C2 — higher, 167 to 168 °C
- CC(C)(Br)c1ccc2occ(C#N)c(=O)c2c1 — lower, 115 to 117 °C
- CCC1=C(C(=O)OC)C(c2ccc(F)cc2Cl)N=C(c2cscn2)N1 (stereo not drawn) — lower, 144 to 147 °C
- CCN(C(=O)C(F)(F)F)c1cc(C)nc(Oc2c(C)cc(C)cc2C)c1C — lower, 110 to 111 °C
- COc1ccc2[nH]cc(C3=CCC4(CC3)OCCO4)c2c1 — higher, 161 to 162 °C
- COc1cccc(Nc2ccnc(Nc3cc(C)c(OC)c(OC)c3)n2)c1 — lower, 66 to 68 °C
- COc1ccc(C2Nc3cc(OC)c(OC)cc3C(C)=[N+]2[O-])cc1 (stereo not drawn) — higher, 161 to 163 °C
- COCC(=O)Nc1nc2ccc([N+](=O)[O-])cc2s1 — higher, 230 to 233 °C
- COc1ccc(Nc2ncnc(NCCO)n2)cc1 — higher, 160 to 164 °C
- O=c1oc2c(c(O)c1C(c1ccccc1)C1CC1)CCC2 (stereo not drawn) — higher, 183 to 185 °C
- COc1ccc(-c2nc(C)c(Br)[nH]2)cc1 — higher, 179 to 184 °C
- NC1=NC(c2ccc(OC(F)F)cc2)(c2cccc(-c3cccnc3F)c2)C2=NCCCN12 (stereo not drawn) — lower, 104 to 114 °C
- CCCCCCCCCCC(=O)OCCCCCC(=O)CC(=O)c1ccccc1 — lower, 37 to 38 °C
- C=CCc1cccc(CC(NC(C)=O)C(=O)OCc2ccccc2)c1 (stereo not drawn) — lower, 55 to 56.5 °C
- COc1c(F)cc2c(O)c(C(=O)NCc3ccc(Cl)cc3)cnc2c1OC — higher, 228 to 229 °C
- CC(C)(C)c1nc(C(=O)c2cccs2)nc(C(C)(C)C)c1O — not separable, 158 to 159 °C
- CCOC(=O)c1c(Cn2cnnc2)nc2cc(OC)c(OC)cc2c1-c1ccc(OC(C)C)c(OC)c1 — higher, 178 to 179 °C
- CCc1cccc(N=C(C)Nc2cccc(CC)c2)c1 — lower, 86 to 87 °C
- CCC12CCC3C4=C(CC(OC)=CC4)C(C)CC3C1CCC2O (stereo not drawn) — higher, 176 to 182 °C
- O=C(Nc1cccc(OC2OC(CO)C(O)C2O)c1)C(F)(F)F (stereo not drawn) — lower, 133 to 135 °C
- COc1ccccc1-c1ccc(C(=O)N2Cc3cccn3Cc3ccccc32)cc1C — lower, 133 to 135 °C
- O=C(O)C1=Cc2cc(Cl)c(Oc3ccc4cc(Br)ccc4c3)cc2OC1C(F)(F)F (stereo not drawn) — higher, 253 to 255 °C
- C=CCC1(CC=C)c2cc(Br)ccc2-c2ccc(Br)cc21 — lower, 149 to 150 °C
- CC(C)(C)c1ccc(C(CO)NC(=O)c2c(F)c(F)cc(F)c2F)cc1 (stereo not drawn) — not separable, 158 to 160 °C
- CC(C)(C)OC(=O)ON=C(C#N)c1ccc(Cl)cc1 — lower, 91 to 92 °C
- CONS(=O)(=O)c1ccc(Cl)cc1 — lower, 81 to 82.5 °C
- Cc1oc(-c2ccccc2)nc1CCC(=O)c1ccc(C=CC=O)cc1 — lower, 119 to 120 °C
- CC(=O)OC1CCC2C3CCC4CC(O[Si](C)(C)C(C)(C)C)CCC4C3CCC12C (stereo not drawn) — lower, 89 to 90 °C
- Cc1cccc2c1nc(-c1ccccc1[N+](=O)[O-])n2CC(O)C(C)(C)C (stereo not drawn) — higher, 204 °C
- CCOC(=O)C1CN(C2CC2)c2nc(Sc3ccc(C)cc3)c(F)cc2C1=O (stereo not drawn) — lower, 124 to 125 °C
- COc1cc(C(O)C(CO)[N+](=O)[O-])cc(OC)c1OC (stereo not drawn) — not separable, 155 to 159 °C
- CCc1cnc(N2CCC(c3ccc(COc4ccc(C#N)c(F)c4)nc3)CC2)nc1 — lower, 129 to 131 °C
- CCc1ccc(N(C(=O)CCl)c2c(F)c(F)cc(F)c2F)cc1 — lower, 72 °C
- C=CCNC(=O)ON=C1CCOc2ccccc21 — lower, 83 to 86 °C
- O=C(O)c1ccc2c(c1)CCc1ccc(O)cc1C2=O — higher, 256 to 257 °C
- Cc1cc(C)cc(N(CCN)Cc2ccc3nc(NCCCN4CCOCC4)n(Cc4nc(C)ccc4O)c3c2)c1 — higher, 196 °C
- COc1ccc(-c2ccc(Cl)cc2)c(COc2ccc(-c3nc4cc(C(=O)O)ccc4n3C3CCCCC3)cc2)c1 — higher, 248 to 249 °C
- CC(=O)OCC1OC(n2cc(S)c(=O)[nH]c2=O)CC1(O)C(C)=O (stereo not drawn) — higher, 159 to 163 °C
- O=Cc1cc2c(s1)CCc1cc(=O)n(-c3ccc(Cl)cc3)nc1-2 — higher, 242 to 244 °C
- CCOC(=O)[C@](CC(=O)OC1CC(C)CCC1C(C)C)(NC(=O)OCc1ccccc1)C(N)=O (stereo partly drawn) — lower, 124 °C
- CC1(c2ccccc2)C(=O)Nc2ccccc2C1=O (stereo not drawn) — higher, 194 to 196 °C
- CCCN(CCC)[C@@H]1Cc2c(-c3ncco3)ccc3c2[C@H](CN3)C1 — lower, 103 to 104 °C
- CC1=CC(OC(=O)c2ccc(N)cc2)C(O)C(C)(C)CC1=O (stereo not drawn) — lower, 152 to 153 °C
- COc1ccc(C(=O)Nc2ccc(C(=O)Nc3ccccc3)cc2)cc1C12CC3CC(CC(C3)C1)C2 — higher, 265 to 268 °C
- Cc1ccc(-c2c(-c3ccc(S(C)(=O)=O)cc3)cnn(-c3ccc(F)c(F)c3)c2=O)cc1F — higher, 204 to 206 °C
- CC(=O)OCCCC(=C(c1ccccc1)c1ccccc1)c1ccccc1 — lower, 80 to 81 °C
- CCOC(=O)c1cn(C(C)C(OC)OC)c2c(F)c(F)c(F)cc2c1=O (stereo not drawn) — lower, 125 to 126 °C
- CC1(C)Cc2c(c(N3CCOCC3)nc3sc4c(NCC(=O)N5CCOCC5)ncnc4c23)CO1 — higher, 209 to 210 °C
- Cc1c(C(=O)Nc2ccc(N3CCN(C4CCOCC4)CC3)c(C#N)c2)cnn1-c1ccc(F)cc1 — higher, 240 °C
- CN(Cc1ccc(NC(=O)C2=Cc3cc(-c4ccc(C(F)(F)F)cc4)ccc3OCC2)cc1)C1CCOCC1 — higher, 205 to 209 °C
- CCCCOc1cc(=O)n(CCCC)c2ccccc12 — lower, 50 to 52 °C
- CC(C)Cc1ccc2scc(C(C)N(O)C(N)=O)c2c1 (stereo not drawn) — lower, 151 to 153 °C
- CN1CCCC1=NC(=O)Nc1ccc([N+](=O)[O-])cc1 — higher, 180 to 182 °C
- Nc1cccc2nc3c(nc12)N1CCCCC1CO3 (stereo not drawn) — higher, 207 to 209 °C
- CC(C)OC(=O)COc1ccc(CCNS(=O)(=O)c2ccccc2)cc1 — lower, 56 to 57 °C
- CC1CN(c2ccc(-c3[nH]nc4c3C(=O)c3c(NC(=O)NN5CCOCC5)cccc3-4)cc2)CCN1 (stereo not drawn) — higher, 230 °C
- CCCCOc1ccc(S(=O)(=O)C2(C(=O)O)CCN(Cc3ccc(Cl)c(Cl)c3)CC2)cc1 — higher, 257 °C
- O=c1[nH]c2cc(Cl)ccc2c(O)c1-c1ccccc1F — higher, > 350 °C
- Oc1cccc(C2=CCCN(CCc3ccccc3)C2)c1 — lower, 155 °C
- CCc1cc(C(=O)c2ccccc2Cl)c(-n2cnnc2CNC(=O)c2ccccc2)s1 — lower, 140 to 142 °C
- CC1CCC(C(C)C)C(OC(=O)C2(CC(=O)OC(C)(C)C)C(=O)N(Cc3ccc(Br)cc3F)C(=O)c3cccn32)C1 (stereo not drawn) — lower, 99 to 100 °C
- N#CCCSCc1nccc(NC(=S)NCC(F)(F)F)n1 — lower, 108 to 110 °C
- CCSc1nc(=O)[nH]cc1F — higher, 168 °C
- COc1cc2c(cc1C(F)(F)F)N(C(=O)Nc1csc(-c3cnccn3)n1)CC2 — higher, > 240 °C
- CCN(CC)C(=O)c1cc2ccccc2[nH]1 — lower, 108 to 110 °C
- N#CCC1CN(Cc2ccccc2)CCO1 (stereo not drawn) — lower, 62 °C
- NS(=O)(=O)c1ccc(NC(=O)CNc2ccccc2)c(Cl)c1 — higher, 185 to 186 °C
- N#Cc1cc(C#N)cc(Oc2c(C3CC3)n[nH]c2C2CC2)c1 — higher, 168 to 170 °C
- Cn1nnc(-c2cccc(N)c2)n1 — lower, 97 °C
- CC(=O)OC1CCC2(C)C(=CC(=O)C3C4CC(OC(C)=O)C(=O)C4(C)CCC32)C1 (stereo not drawn) — higher, 206 °C
- COc1cc(Nc2nccc(-c3cccc4ccccc34)n2)cc(OC)c1OC — lower, 130 to 133 °C
- O=C(CC1CCCC1)NC[C@H]1CN(c2ccc3c(c2)CCCc2cnoc2-3)C(=O)O1 — higher, 193 to 195 °C
- Clc1ccc2nc3n(c2c1)CCC3 — lower, 136 °C
- Cc1cc(-c2ccc(C(F)(F)F)cc2)nc(-n2cnc(-c3cccc(S(N)(=O)=O)c3)c2)n1 — higher, 186 °C
- CCCNC(=O)Cc1c(-c2ccc(C)s2)nc2sc3ccccc3n12 — higher, 204 to 206 °C
- CC(=O)Oc1ccc(-c2nn(C3CCCC3)c3c(F)cccc23)cc1 — lower, 90 to 91 °C
- O=C1Cc2cc(F)ccc2N1c1ccc(F)cc1 — lower, 135 to 140 °C
- COC(=O)c1cccnc1C(=O)c1ccccc1 — lower, 74 °C
- Cc1nc2cccc(S(=O)(=O)n3c(COC(C)(C)C(=O)O)cc4cc(Cl)ccc43)c2s1 — lower, 128 to 130 °C
- CC(C)CC(C(=O)O)c1cc(Cl)c(-c2ccc(Cl)c(Cl)c2)c(OCC2CC2)c1 (stereo not drawn) — lower, 118 to 119 °C
- COc1ccc(C(=O)Nc2ccccc2CC(C)C2CCCCN2C)cc1 (stereo not drawn) — lower, 126 to 136 °C
- CS(=O)(=O)OCCC(CCOS(C)(=O)=O)C(F)(F)F — lower, 40 to 45 °C
- CCOC(=O)N1CCN(CCNc2ncnc3c2sc2nc(N4CCCC4)c4c(c23)CC(C)(C)CC4)CC1 — lower, 76.2 to 77.8 °C
- O=C(Nc1cccc(C(F)(F)F)c1)NC1CCN(S(=O)(=O)c2ccc(Cl)cc2)CC1 — lower, 116 to 118 °C
- O=C(C=Cc1ccc(O)c(OC(F)(F)F)c1)C(CCOCCO)C(=O)C=Cc1ccc(O)c(OC(F)(F)F)c1 (stereo not drawn) — lower, 112 to 114 °C
- O=c1cccc2nccncc1-2 — lower, 145 to 147 °C
- O=C(c1ccccc1)N1CCNc2ncccc21 — higher, 166 to 168 °C
- CCCc1cc2ccccn2c1C(C)=O — lower, 71 to 72 °C
- Sc1nsnc1C12CN3CC1C2C3 — higher, 205 to 207 °C
- Cc1cccc(NC(=O)NCC(=O)N(CC(=O)OC(C)(C)C)c2cccc(Cl)c2Cl)c1 — lower, 135 °C
- CCOC(=O)c1ccc(NC(=O)CC(C(=O)Nc2ccc(NC(=O)Nc3ccccc3C)cc2)c2ccccc2)cc1 (stereo not drawn) — higher, > 220 °C
- Cc1cccnc1C(CO)COc1ccc([N+](=O)[O-])cc1 (stereo not drawn) — lower, 135 to 136 °C
- CC(C)(C)NC(=O)[C@@H]1C[C@@H]2CCCC[C@@H]2CN1C[C@H]1OC(=O)N[C@H]1Cc1ccccc1 — higher, 202 to 204 °C
- CC(C)(C)C(O)(COC1CCCCO1)Cn1ccnc1 (stereo not drawn) — lower, 107 °C
- COc1cc2c(c3c1OC(C)(C)C3)C(c1cccc(NC(=O)CS(C)(=O)=O)c1)=NC(C)(C)C2 — lower, 135 to 140 °C
- Cn1c(=O)cc(CCc2cccc(Cl)c2)c2cc(C(N)(c3ccc(Cl)cc3)c3cccnc3)ccc21 (stereo not drawn) — lower, 90 °C
- Cc1ccc(C(=O)Nc2ccc(-n3ccnc3C)c(C(F)(F)F)c2)cc1Nc1nccc(-c2cccnc2)n1 — not separable, 154 to 163 °C
